The text below walks through data of article PMC7015555, “Transthyretin-Binding Activity of Complex Mixtures Representing the Composition of Thyroid-Hormone Disrupting Contaminants in House Dust and Human Serum” (Environmental Health Perspectives, 2020).

Like-named read-outs stand apart in the source and are kept apart here.

On the set-up of series [1]: method as in Jahnke et al. 2004. As to conditions: rodents; ref Jahnke et al. 2004; cited from earlier work.
In series [2] the target is TBG. As to conditions: ref Salvatore et al. 2016; read-out: Kd(TBG) for T4; cited from earlier work.
Series [3] has as its system TTR. As to conditions: cited from earlier work; for IC50: read-out: IC50 (M), Radioactive Ligand Binding Assay data from the literature; for REP, Radioactive Ligand Binding Assay data from the literature: relative effect potency.
Details of series [4]: method as in Jahnke et al. 2004. As to conditions: humans; ref Jahnke et al. 2004; cited from earlier work.
For series [5], the target named is T1, TTR (Homo sapiens, UniProt P02766). The experiment in a line: FITC-T4 TTR competitive binding assay. As to conditions: for REP (relative potency compared to T4): IC20 of T4 / IC20 of compound (Equation 14); for T4EQ concentration (nmol/g dust): reported concentration of the compound in SRM2585 dust x REP.
In series [6] the target is T1, TTR. Kind of series: Saturation experiment for the FITC-T4-TTR complex. Type of series: binding. As to conditions: 30 nM TTR, FITC-T4 0 to 1,000 nM, no inhibitor. How it is done:
Competitive TTR-binding assays were performed by incubating human TTR ( 30nM ) with 110nM of FITC- T4 in the presence of test compounds, reference compound T4 , or carrier solvent control (1% DMSO). For each incubation with TTR, a parallel incubation was performed without TTR to correct for background fluorescence of the unbound FITC- T4 . In the competitive binding experiments, these control incubations were also used to check for possible quenching of FITC- T4 fluorescence by the test compounds and for autofluorescence of the test compounds themselves, neither of which was observed. […]
The Kd value for the FITC-T4-TTR complex was determined in a saturation binding experiment with various concentrations of FITC-T4 (ranging from LT = 0 to LT = 1E-6 M) in the absence or the presence of a fixed concentration of TTR (PT = 3E-8 M).
Using the least-squares method, a non-linear regression fit was performed on the corrected fluorescence Fc as a function of LT, yielding parameter estimates p*(q-1)=0.644 (AFU/nM) and […]
S1.4 Derivation of Ki from the ICx determined in the bioassay
The inhibitor-specific ICx value determined in the bioassay is defined as the total inhibitor concentration [IT] at which the concentration of ligand-protein complex [PLx] is (100-x)% of the concentration of ligand-protein complex in the absence of inhibitor [PL0], i.e. […]

Setting [7] is: 20% inhibition of FITC-T4 binding to TTR, 30 nM TTR, 110 nM FITC-T4, 2 h at 4°C, pH 8.0.
[8] abbreviates: individual compounds, 30 nM TTR, 110 nM FITC-T4, 2 h at 4°C, pH 8.0, — = 50% inhibition level not reached (footnote g), read-out: IC50.
Where [9] appears, read: inhibitor-TTR dissociation constant converted from IC20 (Equation 4), 4°C, read-out: Ki.

What is called Kd is the equilibrium constant for the complex coming apart. The IC20 is the point of the concentration-response curve where the effect stands at 20%. In general, IC50 refers to the concentration that inhibits the measured activity by half. For orientation: Ki means a measure of affinity in units of concentration, obtained from inhibition or displacement.

Take `NC(Cc1cc(I)c(Oc2cc(I)c(O)c(I)c2)c(I)c1)C(=O)O` (stereo not shown) [Thyroxine ( T4 ), thyroxine]: the results for the T4 half-life time in series [1] and in series [4] were 12 to 24 h and 120 to 220 h, respectively. The dissociation constant Kd in series [2] was 0.1 nM. For the same compound, the concentration for an effect of 20% (IC20) in series [3] (ref Hamers et al. 2008, Weiss et al. 2009, read-out: IC20 in the radioligand binding assay) is roughly 30 nM; in series [5] (pH 8), 21 nM.

As for `O=C1OC2(c3ccc(O)cc3Oc3cc(O)ccc32)c2ccc(NC(=S)NC(Cc3cc(I)c(Oc4cc(I)c(O)c(I)c4)c(I)c3)C(=O)O)cc21` (stereo not shown) [FITC- T4], in series [6], the Kd came out at 140 nM.

Regarding `O=C(O)C(F)(F)C(F)(F)C(F)(F)C(F)(F)C(F)(F)C(F)(F)C(F)(F)C(F)(F)F` [PFNA, perfluorononanoic acid], in series [3] (ref Weiss et al. 2015), the IC50 is 2.74e-06 M and the “REP, Radioactive Ligand Binding Assay data from the literature” value (“REP … from the literature” below) is 0.022. Besides, the IC20 in series [5] (setting [7]) stood at 360 nM. In addition, in series [5], the “REP (relative potency compared to T4)” value is 0.059 and the “T4EQ concentration (nmol/g dust)” value is on record as 0.013 nmol/g dust. In addition, in series [5] (setting [8]), the IC50 is 1100 nM. The inhibition constant Ki in series [5] (read-out: Ki) was 770 nM.

Take `Oc1c(Cl)c(Cl)c(Cl)c(Cl)c1Cl` [Pentachlorophenol, pentachlorophenol]: in series [3] (ref Weiss et al. 2015), the half-inhibitory concentration (IC50) is 2.3e-07 M and the “REP … from the literature” value was 1.74. Besides, in series [5], the concentration for half-maximal inhibition (IC50) amounted to 60 nM, the Ki was 24 nM and the “REP (relative potency compared to T4)” value is listed as 1.2. Further, the concentration for an effect of 20% (IC20) in series [5] (pH 8) amounted to 17 nM.

As for `NS(=O)(=O)C(F)(F)C(F)(F)C(F)(F)C(F)(F)C(F)(F)C(F)(F)C(F)(F)C(F)(F)F` [FOSA, perfluorooctane sulfonamide], in series [3] (ref Weiss et al. 2015), the IC50 is 6.12e-06 M and the “REP … from the literature” value was 0.01. Further, in series [5], the “REP (relative potency compared to T4)” value was found to be 0.11 and the “T4EQ concentration (nmol/g dust)” value amounted to 0.002 nmol/g dust. In addition, the inhibitory constant (Ki) in series [5] (setting [9]) was determined as 400 nM. The IC20 in series [5] (pH 8) turned out to be 190 nM. Further, the IC50 in series [5] (read-out: IC50) stood at 730 nM.

`Brc1ccc(Oc2ccc(Br)cc2Br)c(Br)c1` [BDE-47, 2,2ʹ,4,4ʹ-tetrabromodiphenyl ether]: in series [3] (ref Weiss et al. 2015), the IC50 was 3.6e-05 M and the “REP … from the literature” value is on record as 0.0025. In series [5], the affinity, expressed as Ki, was 440 nM; the “REP (relative potency compared to T4)” value was 0.10; the “T4EQ concentration (nmol/g dust)” value came to 0.103 nmol/g dust. Further, the IC20 in series [5] (pH 8) turned out to be 210 nM. Besides, the half-maximal inhibitory concentration (IC50) in series [5] (read-out: IC50) turned out to be 1300 nM.

With `CCCCCCCCCc1ccc(O)cc1` [4-Nonylphenol, 4-nonylphenol], in series [3] (ref Weiss et al. 2015), the half-inhibitory concentration (IC50) was 1e-05 M and the “REP … from the literature” value is 0.008. Moreover, in series [5], the inhibition constant (Ki) came out at 3900 nM, the “REP (relative potency compared to T4)” value came out at 0.012 and the “T4EQ concentration (nmol/g dust)” value turned out to be 0.946 nmol/g dust. The compound further showed an IC20 in series [5] (pH 8) of 1800 nM. In series [5] (read-out: IC50), the IC50 turned out to be 16000 nM.

For the compound `O=S(=O)(O)C(F)(F)C(F)(F)C(F)(F)C(F)(F)F` [PFBS, perfluorobutane sulfonic acid], in series [3] (ref Weiss et al. 2015), the IC50 was 1.95e-05 M and the “REP … from the literature” value is listed as 0.003. Besides, the IC20 in series [5] (setting [7]) was 2300 nM. Also, in series [5], the “REP (relative potency compared to T4)” value is recorded as 0.0091 and the “T4EQ concentration (nmol/g dust)” value stood at 0.002 nmol/g dust. In addition, the IC50 in series [5] (setting [8]) is 9700 nM. Besides, the Ki in series [5] (setting [9]) turned out to be 5100 nM.

Regarding `CCCOC(=O)c1ccc(O)cc1` [Propylparaben, propyl 4-hydroxybenzoate], in series [3] (ref Zhang et al. 2015), the half-maximal inhibitory concentration (IC50) is 1.9e-05 M and the “REP … from the literature” value is on record as 0.0038. Besides, the “REP (relative potency compared to T4)” value in series [5] was determined as 0.0039. Moreover, in series [5] (setting [9]), the Ki is 12000 nM. In series [5] (pH 8), this compound gave an IC20 of 5500 nM. Moreover, the IC50 in series [5] (read-out: IC50) came out at 19000 nM.

With `O=C(O)C(F)(F)C(F)(F)C(F)(F)C(F)(F)C(F)(F)C(F)(F)C(F)(F)F` [PFOA, perfluorooctanoic acid], in series [3] (ref Weiss et al. 2015), the IC50 was 9.49e-07 M and the “REP … from the literature” value is recorded as 0.064. In series [5], the inhibition constant Ki worked out at 1100 nM, the “REP (relative potency compared to T4)” value came to 0.043 and the “T4EQ concentration (nmol/g dust)” value came to 0.060 nmol/g dust. The same compound registered a 20% effect concentration (IC20) in series [5] (pH 8) of 490 nM. Moreover, in series [5] (read-out: IC50), the IC50 is 1100 nM.

As to `CC(C)(c1cc(Br)c(O)c(Br)c1)c1cc(Br)c(O)c(Br)c1` [TBBPA, tetrabromo-bisphenol-A], in series [3] (ref Weiss et al. 2015), the IC50 is 3.1e-08 M and the “REP … from the literature” value was 1.6. For the same compound, the IC20 in series [5] (setting [7]) stood at 14 nM. Also, in series [5], the “REP (relative potency compared to T4)” value came to 1.5 and the “T4EQ concentration (nmol/g dust)” value amounted to 0.586 nmol/g dust. Also, the IC50 in series [5] (setting [8]) stood at 34 nM. In addition, the Ki in series [5] (read-out: Ki) came out at 17 nM.
